Assay results published in patent US20250154173A1 (Merck Sharp & Dohme LLC, priority 2023, published 2025).

Molecular target: T1, GST-RIPK1 (recombinant GST-RIPK1 kinase domain (residues 1-327)) (Homo sapiens, UniProt Q13546)
T1 construct: recombinant GST-RIPK1 kinase domain (residues 1-327) enzyme produced from baculovirus-transfected Sf21 cells; host or cells: baculovirus-transfected Sf21 insect cells
T1 sequence (Q13546 1-327): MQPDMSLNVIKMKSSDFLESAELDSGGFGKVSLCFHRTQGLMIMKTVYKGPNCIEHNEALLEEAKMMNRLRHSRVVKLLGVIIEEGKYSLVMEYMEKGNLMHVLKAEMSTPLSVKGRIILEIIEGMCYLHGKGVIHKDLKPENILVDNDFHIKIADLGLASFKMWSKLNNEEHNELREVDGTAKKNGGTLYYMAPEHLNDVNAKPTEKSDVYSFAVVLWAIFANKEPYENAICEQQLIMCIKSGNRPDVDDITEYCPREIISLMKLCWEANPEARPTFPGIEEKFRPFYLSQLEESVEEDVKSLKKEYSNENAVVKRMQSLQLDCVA
Test: RIPK1-ADP-Glo Enzymatic Assay
Assay type: biochemical
Settings: ten-point titration, top compound concentration of 100000 nM; 25 nM GST-RIPK1, 300 μM ATP, 3 μM dephosphorylated-MBP; 30 min pre-incubation, 150 min reaction
Method: RIPK1-ADP-Glo Enzymatic Assay
The enzymatic activity of RIPK1 is measured using an assay derived from ADP-Glo kit (TMPromega), which provides a luminescent-based ADP detection system. Specifically, the ADP generated by RIPK1 kinase is proportionally detected as luminescent signals in a homogenous fashion. In this context, the assessment of the inhibitory effect of small molecules (EC50) is measured by the effectiveness of the compounds to inhibit the ATP to ADP conversion by RIPK1.
In this assay, the potency (EC50) of each compound was determined from a ten-point (1:3 serial dilution; top compound concentration of 100000 nM) titration curve using the following outlined procedure. To each well of a white ProxiPlus 384 well-plate, 30 nL of compound (1% DMSO in final assay volume of 3 μL) was dispensed, followed by the addition of 2 μL of 1× assay buffer (25 mM Hepes 7.3, 20 mM MgCl2, 50 mM NaCl, 1 mM DTT, 0.005% Tween20, and 0.02% BSA) containing 37.5 nM of GST-RIPK1 (recombinant GST-RIPK1 kinase domain (residues 1-327) enzyme produced from baculovirus-transfected Sf21 cells: MW=62 kDa). Plates were placed in an ambient temperature humidified chamber for a 30 minutes pre-incubation with compound. Subsequently, each reaction was initiated by the addition of 1 μL 1× assay buffer containing 900 μM ATP and 3 μM dephosphorylated-MBP substrate. The final reaction in each well of 3 μL consists of 25 nM of GST-RIPK1, 300 μM ATP, and 3 μM dephosphorylated-MBP. Kinase reactions were allowed to proceed for 150 minutes prior to adding ADP-Glo reagents per Promega's outlined kit protocol. Dose-response curves were generated by plotting percent effect (% product conversion; Y-axis) vs. Log 10 compound concentrations (X-axis). EC50 values were calculated using a non-linear regression, four-parameters sigmoidal dose-response model.

Molecule: 4-{[(1r,3R,5′S,7a′R)-3′-oxo-5′- phenyltetrahydro-3′H- spiro[cyclobutane-1,2′-pyrrolo[2,1- b][1,3]oxazol]-3-yl]oxy}pyrimidine- 2-carbonitrile [Example 9.18]
- EC50: 54 nM

Molecule: 5-{[(1r,3R,5′S,7a′R)-3′-oxo-5′- phenyltetrahydro-3′H- spiro[cyclobutane-1,2′-pyrrolo[2,1- b][1,3]oxazol]-3-yl]oxy}pyridine-3- carbonitrile [Example 9.15]
- EC50: 73 nM

Molecule: O=C1N2[C@@H](CC[C@H]2c2ccccc2)OC12CCC(Oc1cnccn1)CC2 (mixture of isomers) [Example 9.52, (5′S,7a′R)-5′-phenyl-4-[(pyrazin-2-yl)oxy]tetrahydro-3′H-spiro[cyclohexane-1,2′-pyrrolo[2,1-b][1,3]oxazol]-3′-one]
- EC50: 19 nM

Molecule: O=C1N2[C@@H](CC[C@H]2c2ccccc2)OC12CCC(OCc1ccccc1)CC2 (single isomer, unassigned) [Example 1.1, ((1r or s),4R,5′S,7a′R)-4-(benzyloxy)-5′-phenyltetrahydro-3′H-spiro[cyclohexane-1,2′-pyrrolo[2,1-b]oxazol]-3′-one]
- EC50: 256 nM

Molecule: O=C1N2[C@@H](CC[C@H]2c2ccccc2)OC12CCC(OCc1ccccc1)CC2 (single isomer, unassigned) [Example 1.2, ((1s or r),4R,5′S,7a′R)-4-(benzyloxy)-5′-phenyltetrahydro-3′H-spiro[cyclohexane-1,2′-pyrrolo[2,1-b]oxazol]-3′-one]
- EC50: 138 nM

Molecule: O=C1N2[C@@H](CC[C@H]2c2cncc(F)c2)OC12CCC(OCc1ccccc1)CC2 (single isomer, unassigned) [Example 2.1, ((1r or s),4R,5′S,7a′R)-4-(benzyloxy)-5′-(5-fluoropyridin-3-yl)tetrahydro-3′H-spiro[cyclohexane-1,2′-pyrrolo[2,1-b]oxazol]-3′-one]
- EC50: 1130 nM

Molecule: O=C1N2[C@@H](CC[C@H]2c2cncc(F)c2)OC12CCC(OCc1ccccc1)CC2 (single isomer, unassigned) [Example 2.2, ((1s or r),4R,5′S,7a′R)-4-(benzyloxy)-5′-(5-fluoropyridin-3-yl)tetrahydro-3′H-spiro[cyclohexane-1,2′-pyrrolo[2,1-b]oxazol]-3′-one]
- EC50: 595 nM

Molecule: Cn1cc(C2CCC3OC4(CC(Oc5cc(C#N)ncn5)C4)C(=O)N32)cn1 (single isomer, unassigned) [Example 6.1, 6-((((1r or s),3R,5′(S or R),7a′R)-5′-(1-methyl-1H-pyrazol-4-yl)-3′-oxotetrahydro-3′H-spiro[cyclobutane-1,2′-pyrrolo[2,1-b]oxazol]-3-yl)oxy)pyrimidine-4-carbonitrile]
- EC50: 93400 nM

Molecule: Cn1cc(C2CCC3OC4(CC(Oc5cc(C#N)ncn5)C4)C(=O)N32)cn1 (single isomer, unassigned) [Example 6.2, 6-((((1s or r),3R,5′(S or R),7a′R)-5′-(1-methyl-1H-pyrazol-4-yl)-3′-oxotetrahydro-3′H-spiro[cyclobutane-1,2′-pyrrolo[2,1-b]oxazol]-3-yl)oxy)pyrimidine-4-carbonitrile]
- EC50: 99000 nM

Molecule: Cn1cc(C2CC[C@H]3OC4(CC(Oc5cc(C#N)ncn5)C4)C(=O)N23)cn1 (single isomer, unassigned) [Example 6.3, 6-((((1r or s),3R,5′(R or S),7a′R)-5′-(1-methyl-1H-pyrazol-4-yl)-3′-oxotetrahydro-3′H-spiro[cyclobutane-1,2′-pyrrolo[2,1-b]oxazol]-3-yl)oxy)pyrimidine-4-carbonitrile]
- EC50: 129 nM

Molecule: Cn1cc(C2CCC3OC4(CC(Oc5cc(C#N)ncn5)C4)C(=O)N32)cn1 (single isomer, unassigned) [Example 6.4, 6-((((1s or r),3R,5′(R or S),7a′R)-5′-(1-methyl-1H-pyrazol-4-yl)-3′-oxotetrahydro-3′H-spiro[cyclobutane-1,2′-pyrrolo[2,1-b]oxazol]-3-yl)oxy)pyrimidine-4-carbonitrile]
- EC50: 2830 nM

Molecule: O=C1N2[C@@H](CC[C@H]2c2cc(F)cc(F)c2)OC12CC(Oc1ccnc3c(F)cnn13)C2 (single isomer, unassigned) [Example 9.4]
- EC50: 105 nM

Molecule: O=C1N2[C@@H](CC[C@H]2c2cc(F)cc(F)c2)OC12CC(Oc1ccnc3c(F)cnn13)C2 (single isomer, unassigned) [Example 9.5]
- EC50: 328 nM

Molecule: Cc1cn(-c2cc(OC3CC4(C3)O[C@@H]3CC[C@@H](c5cc(F)cc(F)c5)N3C4=O)ncn2)cn1 (single isomer, unassigned) [Example 9.9]
- EC50: 475 nM

Molecule: O=C1N2[C@@H](CC[C@H]2c2cc(F)cc(F)c2)OC12CC(Oc1ccc(F)cn1)C2 (single isomer, unassigned) [Example 9.35]
- EC50: 64 nM

Molecule: N#Cc1cc(OC2CC3(C2)O[C@@H]2CC[C@@H](c4cccc(F)c4F)N2C3=O)ncn1 (single isomer, unassigned) [Example 9.40, 6-{[(5′S,7a′R)-5′-(2,3-difluorophenyl)-3′-oxotetrahydro-3′H-spiro[cyclobutane-1,2′-pyrrolo[2,1-b][1,3]oxazol]-3-yl]oxy}pyrimidine-4-carbonitrile]
- EC50: 474 nM

Molecule: N#Cc1cc(OC2CC3(C2)O[C@@H]2CC[C@@H](c4cccc(F)c4F)N2C3=O)ncn1 (single isomer, unassigned) [Example 9.41, 6-{[(5′S,7a′R)-5′-(2,3-difluorophenyl)-3′-oxotetrahydro-3′H-spiro[cyclobutane-1,2′-pyrrolo[2,1-b][1,3]oxazol]-3-yl]oxy}pyrimidine-4-carbonitrile]
- EC50: 14 nM

Molecule: CC(O[C@H]1C[C@@]2(C1)O[C@@H]1CC[C@@H](c3cc(F)cc(F)c3)N1C2=O)c1ccc(F)cn1 (single isomer, unassigned) [Example 12.1, (1R,3R,5′S,7a′R)-5′-(3,5-difluorophenyl)-3-((R or S)-1-(5-fluoropyridin-2-yl)ethoxy)tetrahydro-3′H-spiro[cyclobutane-1,2′-pyrrolo[2,1-b]oxazol]-3′-one]
- EC50: 390 nM

Molecule: C[C@@H](OC1CC2(C1)O[C@@H]1CC[C@@H](c3cc(F)cc(F)c3)N1C2=O)c1ccc(F)cn1 (single isomer, unassigned) [Example 12.2, (1R,3R,5′S,7a′R)-5′-(3,5-difluorophenyl)-3-((S or R)-1-(5-fluoropyridin-2-yl)ethoxy)tetrahydro-3′H-spiro[cyclobutene-1,2′-pyrrolo[2,1-b]oxazol]-3′-one]
- EC50: 155 nM

Molecule: CC(OC1CC2(C1)O[C@@H]1CC[C@@H](c3cc(F)cc(F)c3)N1C2=O)c1ncccc1F (single isomer, unassigned) [Example 12.3, (1R or S,3R or S,5′S,7a′R)-5′-(3,5-difluorophenyl)-3-((R or S)-1-(3-fluoropyridin-2-yl)ethoxy)tetrahydro-3′H-spiro[cyclobutane-1,2′-pyrrolo[2,1-b]oxazol]-3′-one]
- EC50: 239 nM

Molecule: CC(OC1CC2(C1)O[C@@H]1CC[C@@H](c3cc(F)cc(F)c3)N1C2=O)c1ncccc1F (single isomer, unassigned) [Example 12.4, (1S or R,3S or R,5′S,7a′R)-5′-(3,5-difluorophenyl)-3-((S or R)-1-(3-fluoropyridin-2-yl)ethoxy)tetrahydro-3′H-spiro[cyclobutane-1,2′-pyrrolo[2,1-b]oxazol]-3′-one]
- EC50: 329 nM

Molecule: CC(OC1CC2(C1)O[C@@H]1CC[C@@H](c3cc(F)cc(F)c3)N1C2=O)c1ncccc1F (single isomer, unassigned) [Example 12.5, (1R or S,3S or r,5′S,7a′R)-5′-(3,5-difluorophenyl)-3-((S or R)-1-(3-fluoropyridin-2-yl)ethoxy)tetrahydro-3′H-spiro[cyclobutane-1,2′-pyrrolo[2,1-b]oxazol]-3′-one]
- EC50: 305 nM

Molecule: CC(OC1CC2(C1)O[C@@H]1CC[C@@H](c3cc(F)cc(F)c3)N1C2=O)c1ccccc1 (single isomer, unassigned) [Example 15.1, ((1S or R),3R,5′S,7a′R)-5′-(3,5-difluorophenyl)-3-((S or R)-1-phenylethoxy)tetrahydro-3′H-spiro[cyclobutane-1,2′-pyrrolo[2,1-b]oxazol]-3′-one]
- EC50: 284 nM
